Patent US12486256B2, “Crystal forms of crenolanib and methods of use thereof” (Arog Pharmaceuticals, Inc., priority 2020, dated 2025)

Tests used:
Assay type in all cases: physicochemical
[1] = Dynamic Vapor Sorption (DVS), hygroscopicity of polymorphic forms; details: for form change during DVS cycling / post-DVS (XRPD): XRPD of retained solid
Method: Dynamic Vapor Sorption (DVS) was used to determine the hygroscopicity of stable polymorphic forms. Approximately 10-20 milligrams of sample was placed in to a mesh vapor sorption balance pan and loaded into an intrinsic dynamic vapor sorption balance by Surface Measurement Systems. The sample was subjected to ramping profile from 40-90% relative humidity (RH) at 10% increments, maintain the sample at each step until as table weight had been achieved (dm/dt 0.0004%, minimum step length 30 minutes, maximum step length 500 minutes) at 25° C. After completion of the sorption cycle, the sample was dried using the same procedure to 0% RH and then a second sorption cycle back to 40% RH. Two cycles were performed. The weight change during the sorption/desorption cycles were plotted, allowing for the hygroscopic nature of the sample tot be determined. XRPD was then carried out on any solid retained to determine if there was change between polymorphic forms during the process.

[2] = Competitive slurry, thermodynamic stability of crystalline forms; details: competitive slurry conditions, Form III seeds present; monobenzenesulfonate
[3] = TGA/DSC, thermal degradation; details: 10° C./min
Method: Thermogravimetric Analysis/Differential Scanning calorimetry (TGA/DSC) was used to determine the phase transition and degradation points as well as the hydrated/solvated states of the various polymorphic forms identified. Approximately 5-10 milligrams of material was added into a pre-tared open aluminum pan and loaded into a TA Instruments SDT 650 Auto-Simultaneous DSC and held at room temperature. The sample was then heated at a rate of 10° C./min from 30° C. to 400° C. during which time the change in sample weight was recorded along with the heat flow response (DSC). Nitrogen was used as the sample purge gas, at a flow rate of 200 cm^3/min. Skilled artisans will appreciate that ambient laboratory conditions may cause slight variability in these readings.

[4] = Solubility in aqueous solutions; details: aqueous solutions at neutral pH
[5] = DVS, 25° C., monobenzenesulfonate
[6] = DVS at 90% relative humidity, 25° C., monobenzenesulfonate

Row | form change during DVS cycling / post-DVS (XRPD) ([1]; monobenzenesulfonate) | hygroscopicity [1, 5] | mass uptake [1, 6] | mass uptake ([1]; DVS, desolvated form, between 0% and 10% humidity) [%] | mass loss (desolvation) ([1]; DVS, during the first cycle) [%] | onset of thermal degradation ([3]; monobenzenesulfonate) [°C] | onset of thermal degradation [3] [°C] | Structure (SMILES) | thermodynamic stability / form conversion [2] | solubility relative to other forms [4]
1 | No form change | non-hygroscopic |  |  |  |  |  | CC1(COc2ccc3c(c2)ncn3-c2ccc3cccc(N4CCC(N)CC4)c3n2)COC1.O=S(=O)(O)c1ccccc1 [Form I, 1-[2-[5-[(3-Methyl-3-oxetanyl)methoxy]-1H-benzimidazol-1-yl]-8-quinolinyl]-4-piperidinamine monobenzenesulfonate] | will convert to Form III | 
2 | No form change | slightly hygroscopic | approximately 1.5% |  |  |  |  | CC1(COc2ccc3c(c2)ncn3-c2ccc3cccc(N4CCC(N)CC4)c3n2)COC1.O=S(=O)(O)c1ccccc1 [Form III, 1-[2-[5-[(3-Methyl-3-oxetanyl)methoxy]-1H-benzimidazol-1-yl]-8-quinolinyl]-4-piperidinamine monobenzenesulfonate] | most thermodynamically stable crystalline form | 
3 | converts to the hemi-hydrated Form II | hygroscopic |  | 1.5 | 9.4 | 241 |  | CC1(COc2ccc3c(c2)ncn3-c2ccc3cccc(N4CCC(N)CC4)c3n2)COC1.O=S(=O)(O)c1ccccc1 [Form IV, 1-[2-[5-[(3-Methyl-3-oxetanyl)methoxy]-1H-benzimidazol-1-yl]-8-quinolinyl]-4-piperidinamine monobenzenesulfonate] |  | 
4 | No form change | slightly hygroscopic | approximately 1.5% |  |  |  | 165 | CC1(COc2ccc3c(c2)ncn3-c2ccc3cccc(N4CCC(N)CC4)c3n2)COC1.O=S(=O)(O)c1ccccc1 [Form II, 1-[2-[5-[(3-Methyl-3-oxetanyl)methoxy]-1H-benzimidazol-1-yl]-8-quinolinyl]-4-piperidinamine monobenzenesulfonate] |  | more soluble in aqueous solutions at neutral pH than the anhydrous Forms I and III
